Results reported in patent publication US20200405868A1, “GEL-FORMING POLYPEPTIDES” (priority 2018, published 2020).
“Also recorded” adds a separate entry of the source. Where a SMILES comes first, the peptide text is derived from it. Where no end group is shown, it is not given here. [ ]: non-standard residue; d: D form. The star is where a group is joined. d2Nal = N[C@H](Cc1ccc2ccccc2c1)C(=O)O; Palmitoyl = CCCCCCCCCCCCCCCC(=O)*

Experiment: Compound gel-forming ability in water (visual inspection, tube tapping assay, tilted tube assay);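 further: peptides mixed with de-ionized water at about 22-25 °C, judged after 20 min by eye plus tube tapping (10 taps, moves counted) and 90° tilt mobility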
Type: physicochemical
Settings: for Physical property at 11% w/w: 11% w/w in aqueous solution, room temperature; for gel formation at 11% w/w: 11% w/w in water; for gel formation in aqueous solution, 11% / propensity to form gels, wild-type counterparts, 11% / propensity to form gels, chimeric or mutated polypeptides, 11%: 11% w/w; for gel formation at 6% w/w: 6% w/w in water; for gel formation in aqueous solution, 6% / propensity to form gels, wild-type counterparts, 6% / propensity to form gels, chimeric or mutated polypeptides, 6%: 6% w/w; for gel formation at 20% w/w: 20% w/w in water; for gel formation at 3% w/w: 3% w/w in water

Pal-HSY-NH2 [SEQ ID NO:120]
Physical property at 11% w/w (Table 2): SS (SS for semisolid gel)

NC(=O)CC[C@@H]1NC(=O)[C@H](Cc2ccccc2)NC(=O)[C@H](Cc2ccc(O)cc2)NC(=O)[C@@H](N)CSSC[C@@H](C(=O)N2CCC[C@H]2C(=O)N[C@@H](CCCN=C(N)N)C(=O)NCC(N)=O)NC(=O)[C@H](CC(N)=O)NC1=O [SEQ ID NO:17, reference compound]
gel formation at 11% w/w: does not form gel
Physical property at 11% w/w (Table 1): AS/IS
gel formation in aqueous solution, 11% (Table 3): AS/IS (AS/IS for aqueous solution or insoluble)
propensity to form gels, wild-type counterparts, 11% (Table 5): AS/IS

YVMGHFRWDRF-NH2 [SEQ ID NO:64, reference compound]
gel formation at 6% w/w: stay soluble
gel formation at 11% w/w: form self-assembling gels; also recorded: liquid gel
gel formation in aqueous solution, 6% (Table 3): AS/IS (AS/IS for aqueous solution or insoluble)
propensity to form gels, wild-type counterparts, 6% (Table 5): AS/IS
gel formation at the selected concentration (selected concentration (i.e., at 30%, 20%, 11%, or 6% w/w)): only form aqueous solution or are insoluble

Ace-K(PAL)FGCRFGTCTVQKLAHQIYQFTDKDKDNVAPRSKISPQGY-NH2 [SEQ ID NO:1]
gel formation at 11% w/w: liquid gel
gel formation in aqueous solution, 6% (Table 3): AS/IS (AS/IS for aqueous solution or insoluble)
propensity to form gels, wild-type counterparts, 3% (Table 5, 3% w/w): AS/IS
propensity to form gels, wild-type counterparts, 6% (Table 5): AS/IS

Pal-SSPHSY-miniPEG-EAYKAAEKAYAAKEAAKEAAKAKAEKKAAYAKAKAAKYEKKAKKAAAEYKKK ({Palmitoyl-Ser-Ser-Pro-H2N-Ser-Tyr-miniPEG}-EAYKAAEKAYAAKEAAKEAAKAKAEKKAAYAKAKAAKYEKKAKKAAAEYKKK) [SEQ ID NO:245]
gel formation at 20% w/w: semisolid gel
gel formation in aqueous solution, 11% (Table 3): AS/IS (AS/IS for aqueous solution or insoluble)
gel formation in aqueous solution, 20% (Table 3, 20% w/w): SS (SS for semisolid gel)
propensity to form gels, chimeric or mutated polypeptides, 11% (Table 5): AS/IS
propensity to form gels, chimeric or mutated polypeptides, 20% (Table 5, 20% w/w): SS (An ability to form semisolid gel is represented by an SS)

Pal-VGSKAF-NH2 (Palmitoyl-VGSKAF-NH2; SMILES CCCCCCCCCCCCCCCC(=O)N[C@H](C(=O)NCC(=O)N[C@@H](CO)C(=O)N[C@@H](CCCCN)C(=O)N[C@@H](C)C(=O)N[C@@H](Cc1ccccc1)C(N)=O)C(C)C; UniProt P06881 114-119, looked up, fragment) [SEQ ID NO:132]
Physical property at 11% w/w (Table 2): AS/IS (AS/IS for aqueous solution or insoluble)

Pal-SSPHSY-miniPEG-YIGSR-NH2 [SEQ ID NO:246]
gel formation at 11% w/w: semisolid gel
gel formation in aqueous solution, 6% (Table 3): SS (SS for semisolid gel)
gel formation in aqueous solution, 11% (Table 3): SS (SS for semisolid gel)
propensity to form gels, chimeric or mutated polypeptides, 6% (Table 5): SS (An ability to form semisolid gel is represented by an SS)
propensity to form gels, chimeric or mutated polypeptides, 11% (Table 5): SS (An ability to form semisolid gel is represented by an SS)

Pal-HSY-(D-Ala)-GF(D-Leu)-NH2 [SEQ ID NO:213]
gel formation at 3% w/w: semisolid gels
gel formation in aqueous solution, 3% (Table 3, 3% w/w): SS (SS for semisolid gel)

Pal-SSPHSY-NH2 [SEQ ID NO:119]
Physical property at 11% w/w (Table 2): SS (SS for semisolid gel)

Ace-FKFEFKFE-NH2 [SEQ ID NO:141, reference compound]
Physical property at 11% w/w (Table 2): SS (SS for semisolid gel)

Pal-SSPHSY-miniPEG -SYS-Nle-EH-(D-Phe)-RWGKPV-NH2 [SEQ ID NO:223]
gel formation in aqueous solution, 20% (Table 3, 20% w/w): SS (SS for semisolid gel)

Pal-KVQKLNFVPTNVGSKAY-NH2 (Palmitoyl-KVQKLNFVPTNVGSKAY-NH2; SMILES CCCCCCCCCCCCCCCC(=O)N[C@@H](CCCCN)C(=O)N[C@H](C(=O)N[C@@H](CCC(N)=O)C(=O)N[C@@H](CCCCN)C(=O)N[C@@H](CC(C)C)C(=O)N[C@@H](CC(N)=O)C(=O)N[C@@H](Cc1ccccc1)C(=O)N[C@H](C(=O)N1CCC[C@H]1C(=O)N[C@H](C(=O)N[C@@H](CC(N)=O)C(=O)N[C@H](C(=O)NCC(=O)N[C@@H](CO)C(=O)N[C@@H](CCCCN)C(=O)N[C@@H](C)C(=O)N[C@@H](Cc1ccc(O)cc1)C(N)=O)C(C)C)[C@@H](C)O)C(C)C)C(C)C) [SEQ ID NO:139]
Physical property at 11% w/w (Table 2): SS (SS for semisolid gel)

Pal-HSY-(D-Met)-FHLMD-NH2 [SEQ ID NO:211]
gel formation at 6% w/w: semisolid or liquid gel
gel formation at 11% w/w: semisolid gel
gel formation in aqueous solution, 11% (Table 3): SS (SS for semisolid gel)

Pal-HSYGTFTSDVSSYLEGQAAKEFIAWLVKGR-NH2 (Palmitoyl-HSYGTFTSDVSSYLEGQAAKEFIAWLVKGR-NH2; SMILES CCCCCCCCCCCCCCCC(=O)N[C@@H](Cc1c[nH]cn1)C(=O)N[C@@H](CO)C(=O)N[C@@H](Cc1ccc(O)cc1)C(=O)NCC(=O)N[C@H](C(=O)N[C@@H](Cc1ccccc1)C(=O)N[C@H](C(=O)N[C@@H](CO)C(=O)N[C@@H](CC(=O)O)C(=O)N[C@H](C(=O)N[C@@H](CO)C(=O)N[C@@H](CO)C(=O)N[C@@H](Cc1ccc(O)cc1)C(=O)N[C@@H](CC(C)C)C(=O)N[C@@H](CCC(=O)O)C(=O)NCC(=O)N[C@@H](CCC(N)=O)C(=O)N[C@@H](C)C(=O)N[C@@H](C)C(=O)N[C@@H](CCCCN)C(=O)N[C@@H](CCC(=O)O)C(=O)N[C@@H](Cc1ccccc1)C(=O)N[C@H](C(=O)N[C@@H](C)C(=O)N[C@@H](Cc1c[nH]c2ccccc12)C(=O)N[C@@H](CC(C)C)C(=O)N[C@H](C(=O)N[C@@H](CCCCN)C(=O)NCC(=O)N[C@@H](CCCNC(=N)N)C(N)=O)C(C)C)[C@@H](C)CC)C(C)C)[C@@H](C)O)[C@@H](C)O) [SEQ ID NO:221]
gel formation in aqueous solution, 6% (Table 3): SS (SS for semisolid gel)
propensity to form gels, chimeric or mutated polypeptides, 6% (Table 5): SS (An ability to form semisolid gel is represented by an SS)

RGD-NH2 [SEQ ID NO:44, reference compound]
Physical property at 11% w/w (Table 1): AS/IS
gel formation in aqueous solution, 11% (Table 3): AS/IS (AS/IS for aqueous solution or insoluble)
propensity to form gels, wild-type counterparts, 11% (Table 5): AS/IS

YIGSR-NH2 [SEQ ID NO:39, reference compound]
Physical property at 11% w/w (Table 1): AS/IS
gel formation in aqueous solution, 11% (Table 3): AS/IS (AS/IS for aqueous solution or insoluble)
propensity to form gels, wild-type counterparts, 11% (Table 5): AS/IS

YADAIFTNSYRKVLGQLSARKLLQDIMSR-NH2 [SEQ ID NO:35, reference compound]
gel formation at 11% w/w: does not form gel
gel formation at 20% w/w: does not form gel
Physical property at 11% w/w (Table 1): AS/IS
gel formation in aqueous solution, 11% (Table 3): AS/IS (AS/IS for aqueous solution or insoluble)
gel formation in aqueous solution, 20% (Table 3, 20% w/w): AS/IS (AS/IS for aqueous solution or insoluble)
propensity to form gels, wild-type counterparts, 11% (Table 5): AS/IS
propensity to form gels, wild-type counterparts, 20% (Table 5, 20% w/w): AS/IS

(Lauric acid)-SSPHSY-NH2 [SEQ ID NO:122]
Physical property at 11% w/w (Table 2): SS (SS for semisolid gel)

C[C@H](NC(=O)[C@@H](Cc1ccc2ccccc2c1)NC(=O)[C@@H](C)N)C(=O)N[C@@H](Cc1c[nH]c2ccccc12)C(=O)N[C@H](Cc1ccccc1)C(=O)N[C@@H](CCCCN)C(N)=O [SEQ ID NO:8, (D-Ala)-(D-(β-naphthyl))-AAW-(D-Phe)-Lys-NH2, reference compound] (H-[dA][d2Nal]AW[dF]K-NH2)
gel formation at 3% w/w: liquid gel
gel formation at 6% w/w: semisolid gel
gel formation at 11% w/w: form self-assembling gels; also recorded: semisolid gel
Physical property at 11% w/w (Table 1): SS (SS for semisolid gel)
gel formation in aqueous solution, 6% (Table 3): SS (SS for semisolid gel)
gel formation in aqueous solution, 11% (Table 3): SS (SS for semisolid gel)
propensity to form gels, wild-type counterparts, 6% (Table 5): SS (An ability to form semisolid gel is represented by an SS)
propensity to form gels, wild-type counterparts, 11% (Table 5): SS (An ability to form semisolid gel is represented by an SS)

Pal-HSYKRPPGFS-(DβNal)-Ile-NH2 [SEQ ID NO:261]
gel formation at 6% w/w: liquid gel
gel formation at 11% w/w: semisolid gel
gel formation in aqueous solution, 11% (Table 3): SS (SS for semisolid gel)
propensity to form gels, chimeric or mutated polypeptides, 3% (Table 5, 3% w/w): AS/IS
propensity to form gels, chimeric or mutated polypeptides, 11% (Table 5): SS (An ability to form semisolid gel is represented by an SS)

(D-Phe)-QWAVGHL-(4-CI)Phe-NH2 [SEQ ID NO:61, reference compound]
gel formation at 11% w/w: form self-assembling gels
Physical property at 11% w/w (Table 1): SS (SS for semisolid gel)
gel formation in aqueous solution, 6% (Table 3): SS (SS for semisolid gel)
gel formation in aqueous solution, 11% (Table 3): SS (SS for semisolid gel)
propensity to form gels, wild-type counterparts, 6% (Table 5): SS (An ability to form semisolid gel is represented by an SS)
propensity to form gels, wild-type counterparts, 11% (Table 5): SS (An ability to form semisolid gel is represented by an SS)

Pal-KSY-NH2 [SEQ ID NO:121]
Physical property at 11% w/w (Table 2): SS (SS for semisolid gel)

Pal-HSYFFGLM-NH2 [SEQ ID NO:253]
gel formation in aqueous solution, 6% (Table 3): AS/IS (AS/IS for aqueous solution or insoluble)
gel formation in aqueous solution, 11% (Table 3): SS (SS for semisolid gel)
propensity to form gels, chimeric or mutated polypeptides, 6% (Table 5): AS/IS
propensity to form gels, chimeric or mutated polypeptides, 11% (Table 5): SS (An ability to form semisolid gel is represented by an SS)
